In ChEMBL document CHEMBL1133205, “Synthesis and biological properties of new glycosidic cationic lipids for DNA delivery” (2000):
Active and inactive are the calls of the source. The rule behind the calls is not given here.

Assays:
[1] = test system: HeLa; assay: Transfection efficiency of compound in delivering a plasmid bearing the sequence of luciferase gene under the dependence of human cytomegalo virus promoter into HeLa cells was evaluated; Inactive; format: functional, cell-based
[2] = test system: HeLa; assay: Transfection efficiency of compound in delivering a plasmid bearing the sequence of luciferase gene as ratio of nM of vector/ug of DNA in HeLa cells; format: functional, Homo sapiens
[3] = test system: HeLa; assay: Transfection efficiency of compound in delivering a plasmid bearing the sequence of luciferase gene under the dependence of human cytomegalo virus promoter into HeLa cells was evaluated; Active; format: functional, cell-based
[4] = test system: NIH3T3; assay: Transfection efficiency of compound in delivering a plasmid bearing the sequence of luciferase gene as ratio of nM of vector/ug of DNA in NIH3T3 cells; format: functional, Mus musculus

For `CCCCCCCCCCCCCCCCCCN(CCCCCCCCCCCCCCCCCC)C(=O)c1ccccc1C(=O)OC[C@H]1O[C@H](OC)[C@H](OC(=O)CN)[C@@H](OC(=O)CN)[C@H]1OC(=O)CN`, which Activity [1] is on record?
The Activity was “inactive”.

Which Activity [2] does the source give for `CCCCCCCCCCCCCCCCCCN(CCCCCCCCCCCCCCCCCC)C(=O)CCC(=O)OC[C@H]1O[C@H](OC)[C@H](OCCN)[C@@H](OCCN)[C@H]1OCCN` here?
Its Activity is 8 (nM of vector) (ug of DNA)-1.

And the Activity [3]?
The Activity was “Active”.

What about the Activity [4] of the same compound?
Its Activity is 12 (nM of vector) (ug of DNA)-1.

Which Activity [2] does the source give for `CCCCCCCCCCCCCCCCCCN(CCCCCCCCCCCCCCCCCC)C(=O)c1ccccc1C(=O)OC[C@H]1O[C@H](OC)[C@H](OCCN)[C@@H](OCCN)[C@H]1OCCN` here?
The Activity was 8 (nM of vector) (ug of DNA)-1.

What about the Activity [3] of the same compound?
The Activity was “Active”.

What about the Activity [4] of the same compound?
Its Activity is 12 (nM of vector) (ug of DNA)-1.

Which Activity [1] does the source give for `CCCCCCCCCCCCCCCCCCN(CCCCCCCCCCCCCCCCCC)C(=O)CCC(=O)OC[C@H]1O[C@H](OC)[C@H](OC(=O)CN)[C@@H](OC(=O)CN)[C@H]1OC(=O)CN` here?
The Activity was “inactive”.
